The values below come from patent US20170095467A1, “ENCAPSULATION OF ISOQUINOLINE ALKALOIDS” (Rhizofeed, LLC, priority 2015, published 2017).

A short description of data set [1]: Heat degradation of alkaloids in crude extract / extraction with heat. It is filed as physicochemical. As for the experimental part:
Two preliminary studies involving heat were conducted. In one study, the raw bloodroot powder was placed on a heating element for 24 hours while the alkaloid was extracted. […] In a second study, a crude extract of alkaloids was placed on a heating element at 67° C. to test for degradation.

The nature of data set [2]: Photosensitivity of sanguinarine and chelerythrine in crude rhizome extract under short-wave UV light (HPLC). It is filed as physicochemical. As for the experimental part:
2 mL of each sample was then collected. All dilutions were filtered through 0.22 um syringe filter (Restek) and were stored in a dark environment held at −4° C. Mobile phases were prepared using 40% acetonitrile, 59% distilled water, and 1% acetic acid. The flow rate was 1.0000 mL/minute, and a pressure of approximately 2161.06 psi was maintained. UV visible spectroscopy was used to determine the optimum wavelength of detection, and detection was carried out at 330 nm. Preliminary studies determined that isoquinoline alkaloids are […] under UV light. In a purified state, it has been established that Sanguinarine undergoes photochemical conversion to oxysanguinarine. […] As depicted in Table 7 and FIG. 5, exposure to light or UV radiation over any period of time has a detrimental effect on the encapsulation yield. According to certain embodiments, exposure to light and UV radiation can be minimized by storing the alkaloids in dark conditions until the encapsulation process is complete or the finished product is used.

Data set [3] in a line: Encapsulate degradation by UV light. Type of data set: physicochemical. From the text:
(§1) The optimized encapsulation method disclosed herein was employed to produce alkaloid loaded inulin beads. These beads were subjected to both heat and light to determine the protective properties conferred by the microencapsulation process.
To determine the light protection provided by the microencapsulation process, 1 g of inulin beads was exposed to a UV source (115V Arthur H. Thomas Co. Lamp).

Data set [4] can be described thus: Encapsulate degradation by heat (oven / pelletization-like conditions). The conditions noted are these: 24 h. It is filed as physicochemical. As for the experimental part:
as §1
To determine the protection the microencapsulation process provides against heat, 1 g of inulin beads was placed in a Fischer Scientific model 605G Isotemp Oven for 24 hours at 96° C. A comparative example of sanguinarine standard that was not encapsulated was also placed in the oven.
A second study was also performed to understand the effect pelletization could have on the microcapsules. In the second study, 1 g of inulin beads was placed in a loosely covered beaker and subjected to 121° C. heat and 16 psi conditions for 20 minutes. These values are much higher in magnitude and duration than will be endured in the pelletization process for animal feed. As depicted in Table 10, the microcapsules decreased degradation by a factor of 1.62.

A further data set concerns rats. The following applies: rat, in vivo; cited from earlier work.
Setting [5] is: Crude Extract Exposed to Heat (24 Hours).
Where [6] appears, read: Standard Extraction (No Heat or Light Exposure).
The mark [7] stands for this setting: Crude Extract Exposed to UV Light (24 Hours).
[8] abbreviates: Crude Extract Exposed to UV Light (48 Hours).
Setting [9] is: Crude Extract Exposed to UV Light (72 Hours).
Where [10] appears, read: Crude Extract Exposed to UV Light (144 Hours).

SMILES strings stand for the structures.

In the case of `COc1ccc2c(c[n+](C)c3c4cc5c(cc4ccc23)OCO5)c1OC` [Chelerythrine, chelerythrine], the “Percentage of alkaloid in Extract” value in data set [1] (setting [5]) is given as 1.81%; in data set [1] (Extracted with Heat (24 Hours)), 2.43%; in data set [1] (setting [6]), 2.95%; in data set [2] (setting [7]), 1.50%; in data set [2] (setting [8]) it was 1.46%; in data set [2] (setting [9]) it was 1.45%. Also, the results for the “Percentage of alkaloid in Extract” value in data set [2] (setting [10]) and in data set [2] (setting [6]) were 1.30% and 2.95%, respectively.
As for `C[n+]1cc2c3c(ccc2c2ccc4cc5c(cc4c21)OCO5)OCO3` [Standard, sanguinarine chloride], in data set [3], the “Percent Degradation” value turned out to be 49.80%, the “Post-Exposure Alkaloid conc.” value was 0.154 mg/mL and the “Pre-exposure Alkaloid conc.” value is on record as 0.307 mg/mL. In data set [4] (96° C.), the “Percent Degradation” value is reported as 25.40%, the “Post-Exposure Alkaloid concentration” value came out at 0.229 mg/mL and the “Pre-exposure Alkaloid concentration” value was 0.307 mg/mL. Moreover, in data set [4] (121° C., 16 psi, Sang. Only), the “Percent Degradation” value worked out at 63.30%, the “Post-Exposure Alkaloid concentration” value is listed as “.07306 (Sang mg/mL” and the “Pre-exposure Alkaloid concentration” value is “.2002 (Sang. mg/mL”.
For the compound `C[n+]1cc2c3c(ccc2c2ccc4cc5c(cc4c21)OCO5)OCO3` [Sanguinarine, sanguinarine], the “Percentage of alkaloid in Extract” value in data set [1] (setting [5]) was determined as 4.28%; in data set [1] (Extracted with Heat (24 Hours)), 3.41%; in data set [1] (setting [6]) it was 5.21%; in data set [2] (setting [7]) it was 2.61%; in data set [2] (setting [8]), 2.41%; in data set [2] (setting [9]), 2.35%. Moreover, the “Percentage of alkaloid in Extract” value in data set [2] (setting [10]) is on record as 1.26%; in data set [2] (setting [6]), 5.21%. Further, in the data set on rats, the LD50 – broadly, the dose at which mortality reaches 50% – is listed as 1658 mg/kg.
